From US6355799B1, “Substituted benzene compounds, process for their preparation, and herbicidal and defoliant compositions containing them” (ISK Americas Incorporated, priority 1997, dated 2002)

Legend:
Assay type in all cases: in vivo
[1] = tested on: redroot pigweed (Amaranthus retroflexus, AMARE); assay: Pre-emerge test, greenhouse herbicide activity screening; conditions: pre-emerge, rated 14 days after application, 0 = no damage, 100 = complete death
Outline: (§1)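 Compounds in acetone were track-sprayed at 187 l/ha, 15–1000 g ai/ha, onto sandy loam pots. Pre-emerge seeds were sown one day before spraying, with surface watering afterwards. Post-emerge plants were at the 2–3 leaf stage and sprayed with 0.25% v/v non-ionic surfactant. Injury was rated 0–100 at 14 days.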

[2] = tested on: barnyardgrass (Echinochloa crus-galli, ECHCG); assay: as above; conditions: pre-emerge, rated 14 days after application, 0 = no damage, 100 = complete death
Outline: as §1

[3] = tested on: common ragweed (Ambrosia artemisizfolia L., AMBEL); assay: as above; conditions: pre-emerge, rated 14 days after application, 0 = no damage, 100 = complete death
Outline: as §1

[4] = tested on: green foxtail (Setaria viridis, SETVI); assay: as above; conditions: pre-emerge, rated 14 days after application, 0 = no damage, 100 = complete death
Outline: as §1

[5] = tested on: ivyleaf morningglory (Ipomoea hederacea, IPOHE); assay: as above; conditions: pre-emerge, rated 14 days after application, 0 = no damage, 100 = complete death
Outline: as §1

[6] = tested on: johnsongrass (Sorghum halepense, SORHA); assay: as above; conditions: pre-emerge, rated 14 days after application, 0 = no damage, 100 = complete death
Outline: as §1

[7] = tested on: lambsquarters (Chenopodium album, CHEAL); assay: as above; conditions: pre-emerge, rated 14 days after application, 0 = no damage, 100 = complete death
Outline: as §1

[8] = tested on: large crabgrass (Digitaria sanguinalis, DIGSA); assay: as above; conditions: pre-emerge, rated 14 days after application, 0 = no damage, 100 = complete death
Outline: as §1

[9] = tested on: sicklepod (Cassia obtusifolia, CASOB); assay: as above; conditions: pre-emerge, rated 14 days after application, 0 = no damage, 100 = complete death
Outline: as §1

[10] = tested on: velvetleaf (Abutilon theophrasti, ABUTH); assay: as above; conditions: pre-emerge, rated 14 days after application, 0 = no damage, 100 = complete death
Outline: as §1

[11] = tested on: field corn (Zea mays L., var. Dekalb 535, CORN); assay: Pre-emerge test, crop safety; conditions: pre-emerge, rated 14 days after application, 0 = no damage, 100 = complete death
Outline: (§2)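 Herbicidal damage is scored 0 (none) to 100 (complete plant death) two weeks after a simulated field spray. Rates span 15–1000 g ai/ha, delivered in acetone at 187 l/ha. For post-emergence treatments, plants have 2–3 leaves and the spray carries 0.25% v/v non-ionic surfactant.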

[12] = tested on: upland rice (Oryza sp., var. Tebonnet, RICE); assay: Pre-emerge test, crop safety; conditions: pre-emerge, rated 14 days after application, 0 = no damage, 100 = complete death
Outline: as §2

[13] = tested on: barnyardgrass (Echinochloa crus-galli, ECHCG); assay: Post-emerge test, greenhouse herbicide activity screening; conditions: phytotoxicity rating 0-100 (0 no damage, 100 complete death), 14 days after application
Outline: (§3)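 Compounds in acetone were track-sprayed at 15-1000 g ai/ha (187 l/ha) on sandy loam pots: pre-emerge one day after seeding, post-emerge at 2-3 leaf stage with 0.25% v/v non-ionic surfactant. Phytotoxicity was rated 14 days later on a 0 (no damage) to 100 (complete death) scale.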

[14] = tested on: common ragweed (Ambrosia artemisizfolia L., AMBEL); assay: as above; conditions: phytotoxicity rating 0-100 (0 no damage, 100 complete death), 14 days after application
Outline: as §3

[15] = tested on: green foxtail (Setaria viridis, SETVI); assay: as above; conditions: phytotoxicity rating 0-100 (0 no damage, 100 complete death), 14 days after application
Outline: as §3

[16] = tested on: ivyleaf morningglory (Ipomoea hederacea, IPOHE); assay: as above; conditions: phytotoxicity rating 0-100 (0 no damage, 100 complete death), 14 days after application
Outline: as §3

[17] = tested on: lambsquarters (Chenopodium album, CHEAL); assay: as above; conditions: phytotoxicity rating 0-100 (0 no damage, 100 complete death), 14 days after application
Outline: as §3

[18] = tested on: large crabgrass (Digitaria sanguinalis, DIGSA); assay: as above; conditions: phytotoxicity rating 0-100 (0 no damage, 100 complete death), 14 days after application
Outline: as §3

[19] = tested on: redroot pigweed (Amaranthus retroflexus, AMARE); assay: as above; conditions: phytotoxicity rating 0-100 (0 no damage, 100 complete death), 14 days after application
Outline: as §3

[20] = tested on: sicklepod (Cassia obtusifolia, CASOB); assay: as above; conditions: phytotoxicity rating 0-100 (0 no damage, 100 complete death), 14 days after application
Outline: as §3

[21] = tested on: velvetleaf (Abutilon theophrasti, ABUTH); assay: as above; conditions: phytotoxicity rating 0-100 (0 no damage, 100 complete death), 14 days after application
Outline: as §3

[22] = tested on: field corn (Zea mays L., var. Dekalb 535, CORN); assay: Post-emerge test, crop safety; conditions: phytotoxicity rating 0-100 (0 no damage, 100 complete death), 14 days after application
Outline: as §1

[23] = tested on: upland rice (Oryza sp., var. Tebonnet, RICE); assay: Post-emerge test, crop safety; conditions: phytotoxicity rating 0-100 (0 no damage, 100 complete death), 14 days after application
Outline: as §1

Cn1c(C(F)(F)F)cc(=O)n(-c2c(N)cc(OC(F)F)cc2F)c1=O [Compound 1-51]
30: Pre-emerge Herbicidal Activity AMBEL (phytotoxicity rating, scale 0-100) ([3]; 63 g ai/ha) | Pre-emerge Herbicidal Activity SETVI (phytotoxicity rating, scale 0-100) ([4]; 63 g ai/ha) | Pre-emerge Herbicidal Activity CASOB (phytotoxicity rating, scale 0-100) ([9]; 250 g ai/ha) | Post-emerge Herbicidal Activity SETVI ([15]; 250 g ai/ha) | Post-emerge Herbicidal Activity CHEAL ([17]; 63 g ai/ha) | Post-emerge Herbicidal Activity RICE (crop damage) ([23]; 250 g ai/ha)
20: Pre-emerge Herbicidal Activity DIGSA (phytotoxicity rating, scale 0-100) ([8]; 63 g ai/ha) | Post-emerge Herbicidal Activity DIGSA ([18]; 250 g ai/ha) | Post-emerge Herbicidal Activity CORN (crop damage) ([22]; 250 g ai/ha)
95: Post-emerge Herbicidal Activity IPOHE ([16]; 250 g ai/ha) | Post-emerge Herbicidal Activity CHEAL ([17]; 250 g ai/ha)
80: Pre-emerge Herbicidal Activity AMBEL (phytotoxicity rating, scale 0-100) ([3]; 250 g ai/ha) | Pre-emerge Herbicidal Activity IPOHE (phytotoxicity rating, scale 0-100) ([5]; 250 g ai/ha) | Post-emerge Herbicidal Activity ABUTH ([21]; 250 g ai/ha)
40: Post-emerge Herbicidal Activity IPOHE ([16]; 63 g ai/ha) | Post-emerge Herbicidal Activity CASOB ([20]; 63 g ai/ha)
70: Pre-emerge crop damage CORN (phytotoxicity rating, scale 0-100) ([11]; 250 g ai/ha) | Pre-emerge crop damage RICE (phytotoxicity rating, scale 0-100) ([12]; 250 g ai/ha) | Post-emerge Herbicidal Activity AMBEL ([14]; 63 g ai/ha) | Post-emerge Herbicidal Activity AMARE ([19]; 63 g ai/ha) | Post-emerge Herbicidal Activity AMARE ([19]; 250 g ai/ha)
100: Pre-emerge Herbicidal Activity AMARE (phytotoxicity rating, scale 0-100) ([1]; 250 g ai/ha) | Pre-emerge Herbicidal Activity CHEAL (phytotoxicity rating, scale 0-100) ([7]; 250 g ai/ha) | Pre-emerge Herbicidal Activity ABUTH (phytotoxicity rating, scale 0-100) ([10]; 250 g ai/ha)
0: Pre-emerge Herbicidal Activity ECHCG (phytotoxicity rating, scale 0-100) ([2]; 63 g ai/ha) | Pre-emerge Herbicidal Activity CASOB (phytotoxicity rating, scale 0-100) ([9]; 63 g ai/ha) | Pre-emerge crop damage CORN (phytotoxicity rating, scale 0-100) ([11]; 63 g ai/ha) | Post-emerge Herbicidal Activity ECHCG ([13]; 63 g ai/ha) | Post-emerge Herbicidal Activity SETVI ([15]; 63 g ai/ha)
90: Pre-emerge Herbicidal Activity AMARE (phytotoxicity rating, scale 0-100) ([1]; 63 g ai/ha) | Pre-emerge Herbicidal Activity SETVI (phytotoxicity rating, scale 0-100) ([4]; 250 g ai/ha) | Pre-emerge Herbicidal Activity CHEAL (phytotoxicity rating, scale 0-100) ([7]; 63 g ai/ha) | Pre-emerge Herbicidal Activity DIGSA (phytotoxicity rating, scale 0-100) ([8]; 250 g ai/ha) | Pre-emerge Herbicidal Activity ABUTH (phytotoxicity rating, scale 0-100) ([10]; 63 g ai/ha) | Post-emerge Herbicidal Activity AMBEL ([14]; 250 g ai/ha)
50: Pre-emerge Herbicidal Activity ECHCG (phytotoxicity rating, scale 0-100) ([2]; 250 g ai/ha) | Pre-emerge Herbicidal Activity IPOHE (phytotoxicity rating, scale 0-100) ([5]; 63 g ai/ha)
10: Pre-emerge Herbicidal Activity SORHA (phytotoxicity rating, scale 0-100) ([6]; 63 g ai/ha) | Pre-emerge crop damage RICE (phytotoxicity rating, scale 0-100) ([12]; 63 g ai/ha) | Post-emerge Herbicidal Activity ECHCG ([13]; 250 g ai/ha) | Post-emerge Herbicidal Activity DIGSA ([18]; 63 g ai/ha) | Post-emerge Herbicidal Activity CORN (crop damage) ([22]; 63 g ai/ha) | Post-emerge Herbicidal Activity RICE (crop damage) ([23]; 63 g ai/ha)
60: Pre-emerge Herbicidal Activity SORHA (phytotoxicity rating, scale 0-100) ([6]; 250 g ai/ha) | Post-emerge Herbicidal Activity CASOB ([20]; 250 g ai/ha) | Post-emerge Herbicidal Activity ABUTH ([21]; 63 g ai/ha)
